Measured values from US20260284014A1, “3,5-DIAMINOTRIAZOLE DERIVATIVES AND USES THEREOF FOR TREATING OCULAR DISEASES” (CENTRE NATIONAL DE LA RECHERCHE SCIENTIFIQUE, priority 2023, published 2026).

Assays:
Assay type in all cases: cell-based
[1] = system: ARPE-19 cells; experiment: Cell viability (XTT assay); conditions: Homo sapiens, 48 h, read-out: A. Safety IC50 on ARPE-19 cells
Protocol: ARPE-19 cells were incubated in a 96-well plate with different effectors for 48 hours. Fifty microliters of sodium 3′-[1-phenylaminocarbonyl)-3,4-tetrazolium]-bis(4-methoxy-6-nitro) benzene sulfonic acid hydrate (XTT) reagent was added to each well. The test is based on the cleavage of the yellow tetrazolium salt XTT to form an orange formazan dye by metabolically active cells. This bio-reduction occurs in viable cells only and is associated with NAD(P)H production through glycolysis. Therefore, the amount of formazan dye measured at 490 nm, correlates directly with the number of metabolically active cells reflecting cell proliferation, viability, and cytotoxicity. Each assay was performed in quadruplicate.
(§1) All compounds were evaluated in different experiments. Results are represented as the mean of three independent experiments. A. ARPE-19 cells were treated with dose response of compound for 48 h. Values are reported as IC50 measured with the XTT assay. B and C. ARPE-19 cells were treated with 5 μM (B) or 1 μM (C) compound then with 200 μM H2O2 for 2 h. ROS were analyzed by cytometry. […] As illustrated in FIG. 1A. D. ARPE-19 cells were treated with 2.5 μM compound for 48 h and the level of CXCL1 mRNA was evaluated by qPCR. […] As illustrated in FIG. 1B. E. TIME cells were pre-treated with 2.5 μM compound for 1 h then stimulated with 100 ng/ml CXCL8 for 15 min p-ERK levels were analyzed by immunoblotting. HSP90 served as loading control. […] As illustrated in FIG. 1C.

[2] = system: ROS; experiment: ROS labeling by cytometry after H2O2; conditions: Homo sapiens, ARPE-19; for inhibition at 1 µM: 1 μM compound then 200 μM H2O2 for 2 h, read-out: C. ROS inhibition 1 μM - ARPE-19 cells; for inhibition at 5 µM: 5 μM compound then 200 μM H2O2 for 2 h, read-out: B. ROS inhibition 5 μM - ARPE-19 cells
Protocol: ARPE-19 cells were treated with MCK349 30 minutes then with 200 μM H2O2 for 2 h. 10 μM DCF-DA (2′,7′-Dichlorofluorescein diacetate) were added on cell media for 30 min. Cells were rinsed then detached (trypsin) and resuspended in PBS 0.5% BSA and 2 mM EDTA. The cells are analyzed by cytometry (ROS labeled with DCFDA-FITC).
as §1

[3] = system: ERK activation (p-ERK); experiment: p-ERK immunoblotting after CXCL8 stimulation; conditions: 2.5 μM compound 1 h then 100 ng/ml CXCL8 for 15 min; read-out: E. p-ERK inhibition - TIME
Protocol: Cells were lysed in buffer containing 3% SDS, 10% glycerol and 0.825 mM Na2HPO4. 30 to 50 μg of proteins separated on 10% SDS-PAGE, transferred onto a PVDF membrane and then exposed to the appropriate antibodies. Proteins were visualized with the ECL system using horseradish peroxidase-conjugated anti-rabbit or anti-mouse antibodies.
as §1

With `Cc1ccc(Nc2nc(N)nn2Cc2cccc(Br)c2)cc1` [MCK341, 1-(3-bromobenzyl)-N^5-(4-methylphenyl)-1H-1,2,4-triazole-3,5-diamine] the IC50 [1] was over 25 µM, the inhibition at 1 µM [2] was at least 50% and the inhibition at 5 µM [2] was at least 50%. The inhibition at 2.5 µM [3] was under 50%.

`Nc1nc(Nc2ccccc2)n(Cc2c(F)cccc2F)n1` [MCK257, 1-(2,6-difluorobenzyl)-N^5-phenyl-1H-1,2,4-triazole-3,5-diamine] showed an IC50 [1] of over 25 µM, an inhibition at 1 µM [2] of at least 50% and an inhibition at 5 µM [2] of at least 50%. For the same compound, the inhibition at 2.5 µM [3] was at least 50%.

`Nc1nc(Nc2ccccn2)nn1Cc1ccc(F)cc1F` [MCK284, 1-(2,4-difluorobenzyl)-N^3-(pyridin-2-yl)-1H-1,2,4-triazole-3,5-diamine] was tested, and the IC50 [1] was over 25 µM, the inhibition at 1 µM [2] was under 50% and the inhibition at 5 µM [2] was under 50%. For the same compound, the inhibition at 2.5 µM [3] was at least 50%.

In the case of `COC(=O)c1ccc(Nc2nc(N)n(Cc3cccc(Br)c3)n2)cc1` [MCK348, methyl-4-((5-amino-1-(3-bromobenzyl)-1H-1,2,4-triazol-3-yl)amino)benzoate], the IC50 [1] is reported as over 25 µM, the inhibition at 1 µM [2] is reported as at least 50% and the inhibition at 5 µM [2] is reported as at least 50%. It also gave an inhibition at 2.5 µM [3] of at least 50%.

Work on `Nc1nc(Nc2ccccc2)nn1Cc1ccccc1` [MCK249, 1-benzyl-N^3-phenyl-1H-1,2,4-triazole-3,5-diamine] yielded an IC50 [1] of over 25 µM, an inhibition at 1 µM [2] of under 50% and an inhibition at 5 µM [2] of at least 50%. The inhibition at 2.5 µM [3] was under 50%.

`Nc1nc(Nc2ccccc2)nn1Cc1cccc([N+](=O)[O-])c1` [MCK275] was tested, and the IC50 [1] was over 25 µM, the inhibition at 1 µM [2] was at least 50% and the inhibition at 5 µM [2] was at least 50%. It also gave an inhibition at 2.5 µM [3] of under 50%.

For `Cc1ccccc1Cn1nc(Nc2ccccc2)nc1N` [MCK250, 1-(2-methylbenzyl)-N^3-phenyl-1H-1,2,4-triazole-3,5-diamine], the IC50 [1] was over 25 µM, the inhibition at 1 µM [2] was at least 50% and the inhibition at 5 µM [2] was at least 50%. The inhibition at 2.5 µM [3] was under 50%.

`Nc1nc(Nc2ccc(Br)cc2)nn1Cc1cccc(Br)c1` [MCK346, 1-(3-bromobenzyl)-N^3-(4-bromophenyl)-1H-1,2,4-triazole-3,5-diamine] gave an IC50 [1] of over 25 µM, an inhibition at 1 µM [2] of at least 50% and an inhibition at 5 µM [2] of at least 50%. It also gave an inhibition at 2.5 µM [3] of at least 50%.

Work on `COc1cccc(Cn2nc(N)nc2Nc2ccccc2)c1` [MCK260, 1-(3-methoxybenzyl)-N^5-phenyl-1H-1,2,4-triazole-3,5-diamine] yielded an IC50 [1] of over 25 µM, an inhibition at 1 µM [2] of at least 50% and an inhibition at 5 µM [2] of at least 50%. The inhibition at 2.5 µM [3] was at least 50%.

`Nc1nc(Nc2ccccn2)nn1Cc1cccc(C(F)(F)F)c1` [MCK282, N^3-(pyridin-2-yl)-1-(3-(trifluoromethyl)benzyl)-1H-1,2,4-triazole-3,5-diamine] showed an IC50 [1] of over 25 µM, an inhibition at 1 µM [2] of under 50% and an inhibition at 5 µM [2] of under 50%. It also gave an inhibition at 2.5 µM [3] of at least 50%.

`CC(C)c1ccc(Cn2nc(Nc3ccc(Cl)c(Cl)c3)nc2N)cc1` [MCK350, N^3-(3,4-dichlorophenyl)-1-(4-isopropylbenzyl)-1H-1,2,4-triazole-3,5-diamine] showed an IC50 [1] of over 25 µM, an inhibition at 1 µM [2] of at least 50% and an inhibition at 5 µM [2] of at least 50%. The inhibition at 2.5 µM [3] was at least 50%.

Work on `Nc1nc(Nc2ccccc2)nn1CC(=O)c1ccccc1` [MCK299, 2-(5-amino-3-(phenylamino)-1H-1,2,4-triazol-1-yl)-1-phenylethan-1-one] yielded an IC50 [1] of over 25 µM, an inhibition at 1 µM [2] of under 50% and an inhibition at 5 µM [2] of under 50%. The inhibition at 2.5 µM [3] was at least 50%.

Compound `Nc1nc(Nc2ccccc2)n(Cc2cccc(C(F)(F)F)c2)n1` [MCK338, N^5-phenyl-1-(3-(trifluoromethyl)benzyl)-1H-1,2,4-triazole-3,5-diamine] has an IC50 [1] of over 25 µM, an inhibition at 1 µM [2] of at least 50% and an inhibition at 5 µM [2] of at least 50%. For the same compound, the inhibition at 2.5 µM [3] was under 50%.

`Nc1nc(Nc2ccccn2)nn1Cc1cc(F)cc(F)c1` [MCK283, 1-(3,5-difluorobenzyl)-N^3-(pyridin-2-yl)-1H-1,2,4-triazole-3,5-diamine] gave an IC50 [1] of over 25 µM, an inhibition at 1 µM [2] of under 50% and an inhibition at 5 µM [2] of under 50%. For the same compound, the inhibition at 2.5 µM [3] was at least 50%.

`Nc1nc(Nc2ccccc2)n(CCc2ccccc2)n1` [MCK300, 1-phenethyl-N^5-phenyl-1H-1,2,4-triazole-3,5-diamine] showed an IC50 [1] of over 25 µM, an inhibition at 1 µM [2] of under 50% and an inhibition at 5 µM [2] of under 50%. It also gave an inhibition at 2.5 µM [3] of at least 50%.

In the case of `Nc1nc(Nc2ccccc2)nn1Cc1cccc(C(F)(F)F)c1` [MCK273, N^3-phenyl-1-(3-(trifluoromethyl)benzyl)-1H-1,2,4-triazole-3,5-diamine], the IC50 [1] is reported as over 25 µM, the inhibition at 1 µM [2] is reported as at least 50% and the inhibition at 5 µM [2] is reported as at least 50%. The inhibition at 2.5 µM [3] was at least 50%.

In the case of `Nc1nc(Nc2ccc(Br)cc2)n(Cc2cccc(Br)c2)n1` [MCK345, 1-(3-bromobenzyl)-N^5-(4-bromophenyl)-1H-1,2,4-triazole-3,5-diamine], the IC50 [1] is reported as over 25 µM, the inhibition at 1 µM [2] is reported as at least 50% and the inhibition at 5 µM [2] is reported as at least 50%. It also gave an inhibition at 2.5 µM [3] of at least 50%.

`Nc1nc(Nc2ccccn2)nn1CC(=O)c1cccc([N+](=O)[O-])c1` [MCK295, 2-(5-amino-3-(pyridin-2-ylamino)-1H-1,2,4-triazol-1-yl)-1-(3-nitrophenyl)ethan-1-one] was tested, and the IC50 [1] was over 25 µM, the inhibition at 1 µM [2] was under 50% and the inhibition at 5 µM [2] was under 50%. The inhibition at 2.5 µM [3] was at least 50%.

Work on `Nc1nc(Nc2ccccn2)nn1Cc1ccc(Cl)cc1` [MCK280, 1-(4-chlorobenzyl)-N^3-(pyridin-2-yl)-1H-1,2,4-triazole-3,5-diamine] yielded an IC50 [1] of over 25 µM, an inhibition at 1 µM [2] of under 50% and an inhibition at 5 µM [2] of under 50%. For the same compound, the inhibition at 2.5 µM [3] was at least 50%.

`Cc1ccccc1Cn1nc(Nc2ccccn2)nc1N` [MCK269, 1-(2-methylbenzyl)-N^3-(pyridin-2-yl)-1H-1,2,4-triazole-3,5-diamine] showed an IC50 [1] of over 25 µM, an inhibition at 1 µM [2] of at least 50% and an inhibition at 5 µM [2] of at least 50%. The inhibition at 2.5 µM [3] was at least 50%.

`Nc1nc(Nc2ccccn2)nn1Cc1c(Cl)cccc1Cl` [MCK278, 1-(2,6-dichlorobenzyl)-N^3-(pyridin-2-yl)-1H-1,2,4-triazole-3,5-diamine] was tested, and the IC50 [1] was over 25 µM, the inhibition at 1 µM [2] was under 50% and the inhibition at 5 µM [2] was under 50%. It also gave an inhibition at 2.5 µM [3] of at least 50%.

`Nc1nc(Nc2ccccc2)nn1Cc1ccccc1[N+](=O)[O-]` [MCK297, 1-(2-nitrobenzyl)-N^3-phenyl-1H-1,2,4-triazole-3,5-diamine] gave an IC50 [1] of over 25 µM, an inhibition at 1 µM [2] of under 50% and an inhibition at 5 µM [2] of under 50%. The inhibition at 2.5 µM [3] was at least 50%.

`Nc1nc(Nc2ccccn2)nn1Cc1c(F)cccc1F` [MCK259, 1-(2,6-difluorobenzyl)-N^3-(pyridin-2-yl)-1H-1,2,4-triazole-3,5-diamine] showed an IC50 [1] of over 25 µM, an inhibition at 1 µM [2] of under 50% and an inhibition at 5 µM [2] of under 50%. For the same compound, the inhibition at 2.5 µM [3] was at least 50%.

With `Nc1nc(Nc2cccnc2)nn1Cc1ccccc1` [MCK254, 1-benzyl-N^3-(pyridin-3-yl)-1H-1,2,4-triazole-3,5-diamine] the IC50 [1] was over 25 µM, the inhibition at 1 µM [2] was under 50% and the inhibition at 5 µM [2] was under 50%. For the same compound, the inhibition at 2.5 µM [3] was under 50%.

In the case of `N#Cc1ccc(Cn2nc(Nc3ccccn3)nc2N)cc1` [MCK281, 4-((5-amino-3-(pyridin-2-ylamino)-1H-1,2,4-triazol-1-yl)methyl)benzonitrile], the IC50 [1] is reported as over 25 µM, the inhibition at 1 µM [2] is reported as under 50% and the inhibition at 5 µM [2] is reported as under 50%. The inhibition at 2.5 µM [3] was at least 50%.

`COc1cc(Cn2nc(Nc3ccccc3)nc2N)cc(OC)c1OC` [MCK298, N^3-phenyl-1-(3,4,5-trimethoxybenzyl)-1H-1,2,4-triazole-3,5-diamine] was tested, and the IC50 [1] was over 25 µM, the inhibition at 1 µM [2] was under 50% and the inhibition at 5 µM [2] was under 50%. For the same compound, the inhibition at 2.5 µM [3] was at least 50%.

With `Cc1ccc(Cn2nc(Nc3ccccc3)nc2N)cc1` [MCK271, 1-(4-methylbenzyl)-N^3-phenyl-1H-1,2,4-triazole-3,5-diamine] the IC50 [1] was over 25 µM, the inhibition at 1 µM [2] was at least 50% and the inhibition at 5 µM [2] was at least 50%. The inhibition at 2.5 µM [3] was at least 50%.

For `Nc1nc(Nc2ccccc2)nn1Cc1cccc(Br)c1` [MCK264, 1-(3-bromobenzyl)-N^3-phenyl-1H-1,2,4-triazole-3,5-diamine], the IC50 [1] was over 25 µM, the inhibition at 1 µM [2] was at least 50% and the inhibition at 5 µM [2] was at least 50%. For the same compound, the inhibition at 2.5 µM [3] was at least 50%.

`Nc1nc(Nc2ccccc2)n(Cc2ccccc2)n1` [MCK248, 1-benzyl-N^5-phenyl-1H-1,2,4-triazole-3,5-diamine] showed an IC50 [1] of over 25 µM, an inhibition at 1 µM [2] of under 50% and an inhibition at 5 µM [2] of at least 50%. It also gave an inhibition at 2.5 µM [3] of under 50%.
